Counter-ions that a name gives are not always drawn.

From patent US20160122320A1, “USEFUL COMBINATIONS OF MONOBACTAM ANTIBIOTICS WITH BETA-LACTAMASE INHIBITORS” (Basilea Pharmaceutica AG, priority 2005, published 2016) come the findings set out here.

Assay in all cases: MIC, NCCLS broth microdilution
What all share (assay type): cell-based
On the technique in general: Broth dilution looks for growth in wells or tubes with falling amounts of substance.

The subject of assay [1] is Pseudomonas aeruginosa MK1184. Particulars: for MIC of antibiotic: antibiotic alone, no inhibitor; for MIC of antibiotic at fixed inhibitor concentration (4 mg/L): MIC of antibiotic compound 1 with the labelled bridged monobactam of formula II and clavulanate, 4 mg/L each.
Description: Antimicrobial activity of the compounds and of their combinations was determined against a selection of organisms according to the standard procedures described by the National Committee for Clinical Laboratory Standards (National Committee for Clinical Laboratory. Standards (2000). Methods for Dilution Antimicrobial Susceptibility Tests for Bacteria That Grow Aerobically-Fifth Edition: Approved Standard M7-A5. NCCLS, Wayne, Pa., USA).
In all cases the final concentration of DMSO incubated with the bacteria is less than or equal to 1%. […] Plates were incubated overnight at an appropriate temperature (30° C. or 37° C.) and optical densities assessed by eye. The MIC value is defined as the lowest compound concentration completely inhibiting visible growth of the test organism. When combinations between compounds of formula I with compounds of formula II and are evaluated the compounds of formula I are tested in dilution series as described above while the compounds of formula II and III-XIII were present in all wells at a constant concentration of 4 μg/mL each.
A further assay has as its system Enterobacter cloacae P99. Particulars: for MIC of antibiotic: antibiotic alone, no inhibitor; for MIC of antibiotic at fixed inhibitor concentration (4 mg/L): MIC of antibiotic compound 1 with the labelled bridged monobactam of formula II and clavulanate, 4 mg/L each.
The test system of assay [2] is Klebsiella pneumoniae CF104. Particulars: for MIC of antibiotic: antibiotic alone, no inhibitor; for MIC of antibiotic at fixed inhibitor concentration (4 mg/L): MIC of antibiotic compound 1 with the labelled bridged monobactam of formula II and clavulanate, 4 mg/L each.
Assay [3] concerns Stenotrophomonas malthophilia 1AC736. Particulars: for MIC of antibiotic / MIC of antibiotic at fixed inhibitor concentration of 4 mg/L: Stenotrophomonas maltophilia 1AC736; for MIC of antibiotic: antibiotic alone, no inhibitor; for MIC of antibiotic at fixed inhibitor concentration (4 mg/L): Stenotrophomonas malthophilia 1AC736, MIC of antibiotic compound 1 with the labelled bridged monobactam of formula II and clavulanate, 4 mg/L each.

The next assay deals with Serratia marcescens S6. Particulars: for MIC of antibiotic: antibiotic alone, no inhibitor; for MIC of antibiotic at fixed inhibitor concentration (4 mg/L): MIC of antibiotic compound 1 with the labelled bridged monobactam of formula II and clavulanate, 4 mg/L each.
In another assay the test system is Acinetobacter sp. J2. Particulars: for MIC of antibiotic / MIC of antibiotic at fixed inhibitor concentration of 4 mg/L: Acinetobacter baumannii J2; for MIC of antibiotic: antibiotic alone, no inhibitor; for MIC of antibiotic at fixed inhibitor concentration (4 mg/L): Acinetobacter sp. J2, MIC of antibiotic compound 1 with the labelled bridged monobactam of formula II and clavulanate, 4 mg/L each.

The subject of assay [4] is Pseudomonas aeruginosa 1973E. Particulars: for MIC of antibiotic: antibiotic alone, no inhibitor; for MIC of antibiotic at fixed inhibitor concentration (4 mg/L): MIC of antibiotic compound 1 with the labelled bridged monobactam of formula II and clavulanate, 4 mg/L each. Summed up:
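Growth inhibition read by eye after overnight incubation (30° C. or 37° C.) defines the MIC, using NCCLS M7-A5 broth microdilution with ≤1% DMSO. When combinations were tested, only the formula I compound was titrated and each partner was fixed at 4 μg/mL.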

Consider `NC(=O)OCC1C(NC(=O)C(=NOCc2cc(=O)c(O)cn2O)c2csc(N)n2)C(=O)N1OCC(=O)O` (stereo not drawn) [Compound 41], for which the MIC of antibiotic in assay [1] is 4 µg/mL; with Enterobacter cloacae P99 it was >32 µg/mL; in assay [2], >32 µg/mL; in assay [3], 1 µg/mL; with Serratia marcescens S6, 1 µg/mL; in the assay with Acinetobacter sp. J2 it was 16 µg/mL. The MIC of antibiotic in assay [4] turned out to be 4 µg/mL. Further, the “MIC of antibiotic at fixed inhibitor concentration of 4 mg/L” value in assay [1] (with 102 and clavulanate) amounted to 4 µg/mL; in assay [1] (with 324 and clavulanate), 4 µg/mL; in the assay on Enterobacter cloacae P99 (with 102 and clavulanate) it was 16 µg/mL; in the assay on Enterobacter cloacae P99 (with 324 and clavulanate) it was 16 µg/mL; in assay [2] (with 102 and clavulanate), 0.5 µg/mL; in assay [2] (with 324 and clavulanate), 0.5 µg/mL. For the same molecule, the “MIC of antibiotic at fixed inhibitor concentration of 4 mg/L” value in assay [3] (with 102 and clavulanate) came to 2 µg/mL; in assay [3] (with 324 and clavulanate), 1 µg/mL; in the assay with Serratia marcescens S6 (with 102 and clavulanate), 0.5 µg/mL; with Serratia marcescens S6 (with 324 and clavulanate), 0.5 µg/mL; in the assay with Acinetobacter sp. J2 (with 102 and clavulanate), 16 µg/mL; in the assay with Acinetobacter sp. J2 (with 324 and clavulanate), 4 µg/mL. In addition, the “MIC of antibiotic at fixed inhibitor concentration of 4 mg/L” value in assay [4] (with 102 and clavulanate) amounted to 4 µg/mL; in assay [4] (with 324 and clavulanate), 8 µg/mL.

Consider `NC(=O)OCC1C(NC(=O)C(=NOCc2cc(=O)c(O)cn2O)c2nc(N)sc2Cl)C(=O)N1OS(=O)(=O)O` (stereo not drawn) [Compound 47], for which the MIC of antibiotic in assay [1] was 4 µg/mL; in the assay on Enterobacter cloacae P99, >32 µg/mL; in assay [2], >32 µg/mL; in assay [3], 1 µg/mL; with Serratia marcescens S6 it was 2 µg/mL; with Acinetobacter sp. J2, >32 µg/mL. Also, in assay [4], the MIC of antibiotic was determined as 8 µg/mL. The “MIC of antibiotic at fixed inhibitor concentration of 4 mg/L” value worked out at 2 µg/mL in assay [1] (with 102 and clavulanate); 4 µg/mL in assay [1] (with 324 and clavulanate); 16 µg/mL in the assay on Enterobacter cloacae P99 (with 102 and clavulanate); 32 µg/mL in the assay on Enterobacter cloacae P99 (with 324 and clavulanate); 4 µg/mL in assay [2] (with 102 and clavulanate); 2 µg/mL in assay [2] (with 324 and clavulanate). In addition, the “MIC of antibiotic at fixed inhibitor concentration of 4 mg/L” value in assay [3] (with 102 and clavulanate) is 1 µg/mL; in assay [3] (with 324 and clavulanate), 1 µg/mL; in the assay with Serratia marcescens S6 (with 102 and clavulanate) it was 2 µg/mL; in the assay with Serratia marcescens S6 (with 324 and clavulanate) it was 2 µg/mL; with Acinetobacter sp. J2 (with 102 and clavulanate), >32 µg/mL; with Acinetobacter sp. J2 (with 324 and clavulanate), >32 µg/mL. Moreover, the “MIC of antibiotic at fixed inhibitor concentration of 4 mg/L” value in assay [4] (with 102 and clavulanate) turned out to be 4 µg/mL; in assay [4] (with 324 and clavulanate), 8 µg/mL.

On to `NC(=O)OC[C@@H]1[C@H](NC(=O)/C(=N\OCc2cc(=O)c(O)cn2O)c2nsc(N)n2)C(=O)N1OS(=O)(=O)O` [Compound 48, ((2S,3S)-3-{(2Z)-2-(5-amino(1,2,4-thiadiazol-3-yl))-3-[(1,5-dihydroxy-4-oxo(2-hydropyridyl))methoxy]-3-azaprop-2-enoylamino}-1-(hydroxysulfonyloxy)-4-oxoazetidin-2-yl)methyl aminooate], for which the MIC of antibiotic was 4 µg/mL in assay [1]; >32 µg/mL in the assay with Enterobacter cloacae P99; >32 µg/mL in assay [2]; 4 µg/mL in assay [3]; 8 µg/mL in the assay on Serratia marcescens S6; >32 µg/mL in the assay on Acinetobacter sp. J2. In assay [4], the MIC of antibiotic was 8 µg/mL. For the same molecule, the “MIC of antibiotic at fixed inhibitor concentration of 4 mg/L” value came to 2 µg/mL in assay [1] (with 102 and clavulanate); 2 µg/mL in assay [1] (with 324 and clavulanate); 32 µg/mL in the assay with Enterobacter cloacae P99 (with 102 and clavulanate); 16 µg/mL with Enterobacter cloacae P99 (with 324 and clavulanate); 2 µg/mL in assay [2] (with 102 and clavulanate); 4 µg/mL in assay [2] (with 324 and clavulanate). The “MIC of antibiotic at fixed inhibitor concentration of 4 mg/L” value is 4 µg/mL in assay [3] (with 102 and clavulanate); 2 µg/mL in assay [3] (with 324 and clavulanate); 2 µg/mL in the assay on Serratia marcescens S6 (with 102 and clavulanate); 2 µg/mL in the assay on Serratia marcescens S6 (with 324 and clavulanate); >32 µg/mL in the assay with Acinetobacter sp. J2 (with 102 and clavulanate); >32 µg/mL with Acinetobacter sp. J2 (with 324 and clavulanate). The “MIC of antibiotic at fixed inhibitor concentration of 4 mg/L” value was found to be 4 µg/mL in assay [4] (with 102 and clavulanate); 8 µg/mL in assay [4] (with 324 and clavulanate).

As for `CNC(=O)c1ccc[n+](CC(=O)N2CC[C@@H]3[C@H]2C(=O)N3S(=O)(=O)[O-])c1` [Compound 101, (1S,5R)-2-{2-[3-(N-methylcarbamoyl)pyridinium]acetyl}-7-oxo-2,6-diazabicyclo[3.2.0]heptane-6-sulfonate, inner salt], the “MIC of antibiotic at fixed inhibitor concentration (4 mg/L)” value in assay [1] was 8 µg/mL; in the assay with Enterobacter cloacae P99, 32 µg/mL; in assay [2], 2 µg/mL; in assay [3], 0.125 µg/mL; in the assay with Serratia marcescens S6, 0.5 µg/mL; in the assay on Acinetobacter sp. J2, >32 µg/mL. Besides, the “MIC of antibiotic at fixed inhibitor concentration (4 mg/L)” value in assay [4] stood at 4 µg/mL.

As to `NC(=O)c1ccc[n+](CC(=O)N2CC[C@@H]3[C@H]2C(=O)N3S(=O)(=O)[O-])c1` [Compound 102, (1S,5R)-2-[2-β-carbamoylpyridinium)acetyl]-7-oxo-2,6-diazabicyclo[3.2.0]heptane-6-sulfonate, inner salt], the “MIC of antibiotic at fixed inhibitor concentration (4 mg/L)” value in assay [1] was determined as 4 µg/mL; in the assay on Enterobacter cloacae P99 it was 4 µg/mL; in assay [2], 1 µg/mL; in assay [3], 0.125 µg/mL; in the assay with Serratia marcescens S6 it was 0.25 µg/mL; in the assay with Acinetobacter sp. J2, 4 µg/mL. Besides, in assay [4], the “MIC of antibiotic at fixed inhibitor concentration (4 mg/L)” value worked out at 2 µg/mL.

With `Nc1cc[n+](CC(=O)N2CC[C@@H]3[C@H]2C(=O)N3S(=O)(=O)[O-])cc1` [Compound 103, (1S,5R)-2-[2-(4-aminopyridinium)acetyl]-7-oxo-2,6-diazabicyclo[3.2.0]heptane-6-sulfonate, inner salt], the “MIC of antibiotic at fixed inhibitor concentration (4 mg/L)” value in assay [1] turned out to be 8 µg/mL; in the assay on Enterobacter cloacae P99 it was 32 µg/mL; in assay [2], 0.5 µg/mL; in assay [3], 0.125 µg/mL; with Serratia marcescens S6 it was 0.25 µg/mL; in the assay on Acinetobacter sp. J2 it was 8 µg/mL. Besides, in assay [4], the “MIC of antibiotic at fixed inhibitor concentration (4 mg/L)” value is 4 µg/mL.

In the case of `O=C(C[n+]1ccc2ccccc2c1)N1CC[C@@H]2[C@H]1C(=O)N2S(=O)(=O)[O-]` [Compound 104, (1S,5R)-2-(2-(2-isoquinolinium)acetyl)-7-oxo-2,6-diazabicyclo[3.2.0]heptane-6-sulfonate, inner salt], the “MIC of antibiotic at fixed inhibitor concentration (4 mg/L)” value in assay [1] is 32 µg/mL; in the assay on Enterobacter cloacae P99, 32 µg/mL; in assay [2], 0.5 µg/mL; in assay [3], 0.125 µg/mL; with Serratia marcescens S6, 2 µg/mL; with Acinetobacter sp. J2, >32 µg/mL. The “MIC of antibiotic at fixed inhibitor concentration (4 mg/L)” value in assay [4] was 4 µg/mL.

Turning to `NC(=O)c1cc[n+](CC(=O)N2CC[C@@H]3[C@H]2C(=O)N3S(=O)(=O)[O-])cc1` [Compound 105, (1S,5R)-2-[2-(4-carbamoylpyridinium)acetyl]-7-oxo-2,6-diazabicyclo[3.2.0]heptane-6-sulfonate, inner salt], the “MIC of antibiotic at fixed inhibitor concentration (4 mg/L)” value in assay [1] was found to be 16 µg/mL; in the assay with Enterobacter cloacae P99, 32 µg/mL; in assay [2], 0.5 µg/mL; in assay [3], 0.125 µg/mL; with Serratia marcescens S6, 0.125 µg/mL; in the assay with Acinetobacter sp. J2 it was 8 µg/mL. The “MIC of antibiotic at fixed inhibitor concentration (4 mg/L)” value in assay [4] was determined as 8 µg/mL.

As for `O=C(C[n+]1ccc2c(c1)CCCC2)N1CC[C@@H]2[C@H]1C(=O)N2S(=O)(=O)[O-]` [Compound 106, (1S,5R)-7-oxo-2-(2-(2-5,6,7,8-tetrahydroisoquinolinium)acetyl)-2,6-diazabicyclo[3.2.0]heptane-6-sulfonate, inner salt], the “MIC of antibiotic at fixed inhibitor concentration (4 mg/L)” value in assay [1] was 32 µg/mL; with Enterobacter cloacae P99, >32 µg/mL; in assay [2] it was 0.25 µg/mL; in assay [3], 0.125 µg/mL; in the assay on Serratia marcescens S6, 0.25 µg/mL; in the assay on Acinetobacter sp. J2 it was >32 µg/mL. Besides, in assay [4], the “MIC of antibiotic at fixed inhibitor concentration (4 mg/L)” value came to 4 µg/mL.
